Entries after “also recorded” stand apart in the source; their conditions may differ.
Tests used:
[1] = system: human smooth muscle cells; assay: In vitro potency: growth suppression of smooth muscle cell cultures (human); format: cell-based; settings: FIG. 2, over five orders of magnitude concentration
Procedure: The ability of the cell culture to reproduce was assessed after drug exposure by addition of a colored reagent which causes a color change in the surviving cells, followed by cell cytometry. The ability of the cells to migrate was assessed when cells from the culture moved through a porous membrane barrier adjacent the culture, and again by staining and cell cytometry. The results of these tests are shown in FIG. 2 for human smooth muscle cells.

[2] = system: porcine smooth muscle cells; assay: In vitro potency: growth suppression of smooth muscle cell cultures (porcine); format: cell-based; settings: over five orders of magnitude concentration
[3] = In vitro release rate of drug from polymer-coated stents into ethanol-water bath; format: physicochemical; settings: at 96 hours; unstirred ethanol-water bath at 37° C.; poly-dl-lactic acid coated stents, average drug load 230 μg
Procedure: The in vitro release rate of drug from the stents into an unstirred, ethanol-water bath at 37° C. was measured and the results are shown in FIG. 4. The six curves in FIG. 4 correspond to six stents carrying a poly-dl-lactic acid polymer loaded with 42-O-(2-ethoxyethyl) rapamycin. Each stent held between about 224–235 μg of drug, with an average drug load of 230 μg. The polymer-drug coated stents were sterilized at 25 KGy or at 27.5 KGy prior to measuring the release rate.
100 mg poly (dl-lactide) was dissolved into 2 mL acetone at room temperature. 5 mg 42-O-(2-ethoxyethyl) rapamycin was placed in a vial and 100 μL lactide solution added. A microprocessor-controlled syringe pump was used to precision dispense 4.5 μL of the drug containing poly-dl-lactide solution to the outer surface of a metal S-Stent (available from Biosensors International Inc, Newport Beach, Calif.).

[4] = system: pig coronary artery (restenosis after overstretch injury); assay: Pig coronary artery overstretch injury model with drug-eluting stents; format: in vivo; settings: for Diameter stenosis: lower score indicates higher efficacy
Procedure: In another study, stents carrying 42-O-(2-ethoxyethyl) rapamycin in the form of a polymer (poly-dl-lactic acid) coating were prepared for insertion into pigs with a vessel overstretch injury to the coronary artery. Comparative and control stents includes bare metal stents, stents having a polymer coating of poly-dl-lactic acid absent drug, stents carrying rapamycin in a poly-dl-lactic acid polymer coating, and stents carrying everolimus in a poly-dl-lactic acid polymer coating. The stents were inserted into vessels which seriously injured (averaging approximately 36% overstretch injury of the vessel) using an angioplasty balloon. […] In this way, it was possible to assess the relative effectiveness of the various test compounds presented to the vessels on the same metal stent/polymer platform. At the time of insertion, the extent of overstretch was recorded as a percent balloon/artery (B/A) ratio.

[5] = system: pig coronary arteries (restenosis); assay: 30-day implantation of drug-eluting stents in pig coronary arteries (late loss vs injury score); settings: 30 days in pig vessels; for intercept of the zero injury (late loss) / neointimal response to injury (slope of the regression line of late loss vs injury score): FIG. 10
Procedure: After preparation of the stents having a polymer-drug coating, they were implanted, as described in Example 5, into pigs for a thirty day period.
As described in Example 5, nine stents eluting 42-O-(2-ethoxyethyl) rapamycin from a polymer layer of poly-lactic acid were implanted in pigs and six control, bare metal stents were implanted. […] Quantitative coronary angiography was performed to measure the vessel lumen diameter immediately before and after stent placement and also 30 days later just prior to the follow-up angiogram taken at animal sacrifice. […] Percent stenosis (% stenosis) was determined from the measurements as: % Stenosis=[(RVD−MLD)/RVD]×100 where MLD is minimum lumen diameter and RVD is distal and proximal reference vessel diameter. The stent to artery ratio was also calculated from these measurements. The angiographic percent stenosis was calculated from the measurements of minimum lumen diameter obtained at the follow-up angiogram.
The photographs in FIGS. 5–9 permit determination via planimetry of the area of new tissue inside the stent after 30 days in vivo. The average thickness of new tissue formed inside the stent for each implant was determined and plotted against an injury score, also determined after the 30 day test period. A least-squares linear regression analysis of the data provides a sensitive method to compare the therapeutic benefit of different stent compositions.
The degree of vascular injury was also quantified by assigning an “injury score” based on the amount and length of tear of the different wall structures. The degree of injury was calculated as follows: • 0=intact internal elastic lamina • 1=ruptured internal elastic lamina with exposure to superficial medial layers (minor injury) • 2=ruptured internal elastic lamina with exposure to deeper medial layers (medial dissection) • 3=ruptured external elastic lamina with exposure to the adventitia. The mean injury score for each arterial segment was calculated by dividing the sum of injury scores at each stent strut site by the total number of stent struts in the proximal, middle, and distal stent sections using the method described by Schwartz et al. (J. Am. Coll. Cardiol., 19:267–274 (1992)).
After analysis of the late loss and injury scores, the average late loss as a function of injury score was plotted for the test stents in each animal. […] The stents were in place in the vessel for 30 days.
Three days prior to insertion of stents each animal received 650 mg aspirin, 500 mg ticlopidine daily, and 120 mg verapamil daily. Aspirin (325 mg) daily was given throughout the duration of the study. The animals were fasted twelve hours prior to stent placement.
For stent placement, each animal was immobilized with an intramuscular injection of 0.5 mg/kg acepromazine, 20 mg/kg ketamine, and 0.05 mg/kg atropine.

[6] = cited from earlier work
[7] = drug load 225 μg, polymer coat 225 μg, stent length 15 mm
[8] = high dose, drug load 325 μg, polymer coat 1300 μg, 6 months
[9] = high dose, drug load 325 μg, polymer coat 1300 μg, 28 days
[10] = low dose, drug load 180 μg, polymer coat 1300 μg
[11] = med. dose, drug load 275 μg, polymer coat 640–780 μg

Row | SMILES | intercept of the zero injury (late loss) [5] [mm] | neointimal response to injury (slope of the regression line of late loss vs injury score) [5] [mm/injury score increment] | Mean lumen loss [4, 9] [mm] | Neointimal area [4, 9] [mm^2] | Diameter stenosis [4, 9] [%] | Mean lumen loss [4, 10] [mm] | Neointimal area [4, 10] [mm^2] | Diameter stenosis [4, 10] [%] | further results
1 | CCOCCO[C@@H]1CC[C@@H](C[C@@H](C)[C@@H]2CC(=O)[C@H](C)/C=C(\C)[C@@H](O)[C@@H](OC)C(=O)[C@H](C)C[C@H](C)/C=C/C=C/C=C(\C)[C@@H](OC)C[C@@H]3CC[C@@H](C)[C@@](O)(O3)C(=O)C(=O)N3CCCC[C@H]3C(=O)O2)C[C@H]1OC [42-O-(2-ethoxyethyl) rapamycin] | 0.126 | 0.83 |  |  |  |  |  |  | inhibition of growth of smooth muscle cells [1]: effectively inhibited growth of smooth muscle cells; also recorded: inhibited cellular growth as effectively as 42-O-hydroxy heptyl rapamycin (diamonds) or rapamycin; inhibition of growth of smooth muscle cells [2]: effectively inhibited growth of smooth muscle cells; drug load released into the bath [3]: less than half of the drug load released; mean lumen late loss and percent diameter stenosis, comparison with the other stents ([4]; compared to rapamycin, everolimus, bare metal and polymer-coated stents): lowest mean lumen late loss and percent diameter stenosis; Mean lumen loss [4, 7]: 0.62 mm; Neointimal area [4, 7]: 1.30 mm^2; Diameter stenosis [4, 7]: 14.8%; neointimal thickness at 30 days (late loss), comparison with other stents ([5]; FIGS. 10-11): lower neointimal thickness at 30 days; also recorded: therapeutic effect when compared to bare, metal stents
2 | CO[C@H]1C[C@@H]2CC[C@@H](C)[C@@](O)(O2)C(=O)C(=O)N2CCCC[C@H]2C(=O)O[C@H]([C@H](C)C[C@@H]2CC[C@@H](OCCO)[C@H](OC)C2)CC(=O)[C@H](C)/C=C(\C)[C@@H](O)[C@@H](OC)C(=O)[C@H](C)C[C@H](C)/C=C/C=C/C=C/1C [everolimus] |  |  | 0.84 | 3.54 | 38.0 | 1.54 | 3.41 | 53.0 | Mean lumen loss [4, 8]: 1.15 mm; Neointimal area [4, 8]: 4.18 mm^2; Diameter stenosis [4, 8]: 68.5%; Mean lumen loss [4, 11]: 0.85 mm; Neointimal area [4, 11]: 2.97 mm^2; Diameter stenosis [4, 11]: 45.0%
3 | COC1CC2CCC(C)C(O)(O2)C(=O)C(=O)N2CCCCC2C(=O)OC(C(C)CC2CCC(OCCCCCCCO)C(OC)C2)CC(=O)C(C)C=C(C)C(O)C(OC)C(=O)C(C)CC(C)C=CC=CC=C1C (stereo not shown) [42-O-hydroxy heptyl rapamycin] | 0.130 | 0.126 |  |  |  |  |  |  | 
4 | CO[C@H]1C[C@@H]2CC[C@@H](C)[C@@](O)(O2)C(=O)C(=O)N2CCCC[C@H]2C(=O)O[C@H]([C@H](C)C[C@@H]2CC[C@@H](O)[C@H](OC)C2)CC(=O)[C@H](C)/C=C(\C)[C@@H](O)[C@@H](OC)C(=O)[C@H](C)C[C@H](C)/C=C/C=C/C=C/1C [rapamycin] |  |  | 1.07 | 3.75 | 55.0 | 0.99 | 2.80 | 43.0 | solubility in water [6]: 20 micrograms per milliliter

Reference: patent US7220755B2, “42-O-alkoxyalkyl rapamycin derivatives and compositions comprising same” (Biosensors International Group, Ltd., priority 2003, dated 2007)
